Results on 12 compounds are retold here after US9546164B2 (GENENTECH, INC., priority 2013, dated 2017).

Counter-ions that a name gives are not always drawn.

In the experiment the target is hNav1.7 (Homo sapiens (Human), UniProt Q15858). The experiment is described as follows: Tritiated sulfonamide competitive binding to membranes from cells expressing hNav1.7 and the β1 subunit.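 Note: Filter-bound radioactivity counted by liquid scintillation, nonspecific binding defined with excess unlabelled ligand, IC50 fitted to percent inhibition of specific binding.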 To be noted: read-out: Ligand Binding Assay; 100 pM [3H]compound, membranes with hNav1.7 and β1 subunit, 18 h, room temperature.
hNav1.7, sequence (Q15858 other isoform, or with tags, fused parts or gaps): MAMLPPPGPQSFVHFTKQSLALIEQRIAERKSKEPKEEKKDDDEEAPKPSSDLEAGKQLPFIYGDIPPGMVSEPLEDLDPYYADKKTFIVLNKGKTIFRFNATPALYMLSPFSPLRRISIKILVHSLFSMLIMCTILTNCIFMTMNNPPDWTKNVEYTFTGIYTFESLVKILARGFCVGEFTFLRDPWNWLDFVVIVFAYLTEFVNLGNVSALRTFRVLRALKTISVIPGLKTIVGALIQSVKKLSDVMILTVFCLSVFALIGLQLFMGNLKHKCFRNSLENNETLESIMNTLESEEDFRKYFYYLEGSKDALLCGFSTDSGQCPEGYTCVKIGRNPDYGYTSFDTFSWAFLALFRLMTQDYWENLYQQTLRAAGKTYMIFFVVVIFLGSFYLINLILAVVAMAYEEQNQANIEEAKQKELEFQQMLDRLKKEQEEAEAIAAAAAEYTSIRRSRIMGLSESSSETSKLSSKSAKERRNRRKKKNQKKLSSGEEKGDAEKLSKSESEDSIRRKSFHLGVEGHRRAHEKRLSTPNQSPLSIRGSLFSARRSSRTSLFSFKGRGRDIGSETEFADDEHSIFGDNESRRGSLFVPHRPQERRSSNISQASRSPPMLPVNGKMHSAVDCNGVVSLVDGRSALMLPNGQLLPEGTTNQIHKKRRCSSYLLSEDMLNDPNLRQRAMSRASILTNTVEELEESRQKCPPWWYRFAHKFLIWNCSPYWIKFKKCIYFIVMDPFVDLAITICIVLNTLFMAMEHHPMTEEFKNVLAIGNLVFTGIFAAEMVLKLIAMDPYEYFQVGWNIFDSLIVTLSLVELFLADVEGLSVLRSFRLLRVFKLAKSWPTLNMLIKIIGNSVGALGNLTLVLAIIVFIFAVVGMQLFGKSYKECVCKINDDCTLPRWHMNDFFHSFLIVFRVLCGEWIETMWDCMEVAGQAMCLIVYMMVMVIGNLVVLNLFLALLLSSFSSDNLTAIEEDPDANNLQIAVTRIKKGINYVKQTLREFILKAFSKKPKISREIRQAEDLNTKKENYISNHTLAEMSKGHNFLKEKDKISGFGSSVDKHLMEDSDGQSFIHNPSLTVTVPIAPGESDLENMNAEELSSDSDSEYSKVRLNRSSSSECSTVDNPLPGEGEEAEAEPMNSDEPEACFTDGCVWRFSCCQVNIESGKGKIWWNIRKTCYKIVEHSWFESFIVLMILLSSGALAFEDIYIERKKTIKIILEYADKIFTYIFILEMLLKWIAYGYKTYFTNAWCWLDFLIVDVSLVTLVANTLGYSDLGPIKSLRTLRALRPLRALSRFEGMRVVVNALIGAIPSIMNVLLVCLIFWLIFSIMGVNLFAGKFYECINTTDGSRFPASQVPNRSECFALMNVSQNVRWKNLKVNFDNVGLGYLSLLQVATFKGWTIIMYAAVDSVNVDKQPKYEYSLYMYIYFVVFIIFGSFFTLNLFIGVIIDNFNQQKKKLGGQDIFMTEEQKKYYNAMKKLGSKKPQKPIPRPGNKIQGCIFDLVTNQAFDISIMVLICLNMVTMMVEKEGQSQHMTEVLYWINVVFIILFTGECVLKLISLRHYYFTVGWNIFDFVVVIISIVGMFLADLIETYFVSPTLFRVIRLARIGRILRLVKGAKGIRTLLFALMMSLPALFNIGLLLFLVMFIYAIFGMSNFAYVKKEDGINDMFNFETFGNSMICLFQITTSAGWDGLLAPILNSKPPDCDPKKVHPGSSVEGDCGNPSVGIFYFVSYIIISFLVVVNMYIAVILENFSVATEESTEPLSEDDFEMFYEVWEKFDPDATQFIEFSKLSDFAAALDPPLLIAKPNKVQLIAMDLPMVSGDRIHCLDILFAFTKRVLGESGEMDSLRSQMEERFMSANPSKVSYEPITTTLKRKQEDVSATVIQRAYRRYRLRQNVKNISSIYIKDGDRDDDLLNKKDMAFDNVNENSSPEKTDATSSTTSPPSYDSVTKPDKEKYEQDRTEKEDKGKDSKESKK
hNav1.7, sequence (Q07699 19-218 partner): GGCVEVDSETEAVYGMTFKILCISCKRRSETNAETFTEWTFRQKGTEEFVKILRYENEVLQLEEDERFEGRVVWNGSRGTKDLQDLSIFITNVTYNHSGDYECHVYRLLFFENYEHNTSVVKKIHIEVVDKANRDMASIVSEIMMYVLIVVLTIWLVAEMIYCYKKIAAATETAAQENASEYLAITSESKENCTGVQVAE
Turning to `C[C@H](c1cc(Cl)cc(Cl)c1)N1CC(C)(COc2cc(F)c(C(=O)NS(C)(=O)=O)cc2C2CC2)C1` (single isomer, unassigned) [Example 185], the IC50 was found to be 7 nM.

Turning to `CS(=O)(=O)NC(=O)c1cc(C2CC2)c(OCC2CCN(Cc3ccc(F)cc3C(F)(F)F)CC2)cc1F` [Example 586, 5-cyclopropyl-2-fluoro-4-((1-(4-fluoro-2-(trifluoromethyl)benzyl)piperidin-4-yl)methoxy)-N-(methylsulfonyl)benzamide], the IC50 stood at 5.2 nM.

As for `CS(=O)(=O)NC(=O)c1cc(C2CC2)c(CN2[C@@H]3CC[C@H]2CC(Oc2cc(C(F)(F)F)cc(Cl)c2F)C3)cc1F` (stereo partly drawn) [Example 471, 4-(((1R,3r,5S)-3-(3-chloro-2-fluoro-5-(trifluoromethyl)phenoxy)-8-azabicyclo[3.2.1]octan-8-yl)methyl)-5-cyclopropyl-2-fluoro-N-(methylsulfonyl)benzamide 2,2,2-trifluoroacetate], the IC50 was determined as 3.7 nM.

In the case of `CS(=O)(=O)NC(=O)c1cc(C2CC2)c(OCC2CCN(S(=O)(=O)c3ccc(Br)c(Cl)c3)CC2)cc1F` [Example 390, 4-((1-((4-bromo-3-chlorophenyl)sulfonyl)piperidin-4-yl)methoxy)-5-cyclopropyl-2-fluoro-N-(methylsulfonyl)benzamide], the IC50 was determined as 18.5 nM.

In the case of `O=C(NS(=O)(=O)C1CC1)c1cc(C2CC2)c(CN2CCC(Oc3cccc(C(F)(F)F)c3)CC2)cc1F` [Example 502, trifluoroacetic acid salt], the IC50 was found to be 6.8 nM.

On to `O=C(NS(=O)(=O)C1CC1)c1cc(C2CC2)c(OCC2CCN(S(=O)(=O)c3ccc(OC(F)(F)F)cc3)CC2)cc1F` [Example 379, 5-cyclopropyl-N-(cyclopropylsulfonyl)-2-fluoro-4-((1-((4-(trifluoromethoxy)phenyl)sulfonyl)piperidin-4-yl)methoxy)benzamide], for which the IC50 worked out at 17.2 nM.

`CS(=O)(=O)NC(=O)c1cc(C2CC2)c(OCC2CCN(Cc3ccc(Br)cc3C(F)(F)F)CC2)cc1F` [Example 585, 4-((1-(4-bromo-2-(trifluoromethyl)benzyl)piperidin-4-yl)methoxy)-5-cyclopropyl-2-fluoro-N-(methylsulfonyl)benzamide]: the IC50 was 3.5 nM.

`CS(=O)(=O)NC(=O)c1cc(C2CC2)c(OCC2CCN([C@H](CO)c3cc(Cl)cc(Cl)c3)CC2)cc1F` [Example 267, (S)-5-cyclopropyl-4-((1-(1-(3,5-dichlorophenyl)-2-hydroxyethyl)piperidin-4-yl)methoxy)-2-fluoro-N-(methylsulfonyl)benzamide]: the IC50 was determined as 47 nM.

Turning to `CS(=O)(=O)NC(=O)c1cc(Cl)c(OCC2CN(C(c3ccccc3)c3ccccc3)C2)cc1F` [Example 59, 4-((1-benzhydrylazetidin-3-yl)methoxy)-5-chloro-2-fluoro-N-(methylsulfonyl)benzamide], the IC50 is 76 nM.

For `CS(=O)(=O)NC(=O)c1cc(C2CC2)c(OCC2CCN(CCC(F)(F)F)CC2)cc1F` [Example 117, 5-Cyclopropyl-2-fluoro-N-(methylsulfonyl)-4-((1-(3,3,3-trifluoropropyl)piperidin-4-yl)methoxy)benzamide], the IC50 turned out to be 411 nM.

In the case of `CS(=O)(=O)NC(=O)c1cc(C2CC2)c(OCC2CCN(Cc3cc(Cl)cc(Cl)c3)CC2)cc1F` [Example 139, 5-Cyclopropyl-4-((1-(3,5-dichlorobenzyl)piperidin-4-yl)methoxy)-2-fluoro-N-(methylsulfonyl)benzamide], the IC50 was 4.9 nM.

As for `O=C(NS(=O)(=O)N1CCC1)c1cc(C2CC2)c(CN2CCO[C@H](Cc3cc(Cl)cc(Cl)c3)C2)cc1F` [Example 465, (R)—N-(azetidin-1-ylsulfonyl)-5-cyclopropyl-4-((2-(3,5-dichlorobenzyl)morpholino)methyl)-2-fluorobenzamide, trifluoroacetic acid salt], the IC50 worked out at 12.8 nM.
